For assay [1], the system named is MCF7. As to the kind of experiment: cells. The note with it: Homo sapiens, MCF7, 24 h.
Description: Cytotoxicity against Homo sapiens (human) MCF7 cells assessed as inhibition of cell proliferation after 24 hr by MTT assay
Assay [2] has as its system MCF7. Kind of assay: Cytotoxicity against Homo sapiens (human) MCF7 cells at 50 uM after 24 hr by MTT assay. Type of assay: functional. Background: Formazan colour is commonly taken as a measure of viable cells.
Assay [3] has as its system K562. As to the kind of experiment: Cytotoxicity against Homo sapiens (human) K562 cells at 50 uM after 24 hr by MTT assay. Type of assay: functional.
Assay [4] has as its system K562. As to the kind of experiment: Cytotoxicity against Homo sapiens (human) K562 cells assessed as inhibition of cell proliferation after 24 hr by MTT assay. The conditions noted are these: K562, 24 h. Type of assay: functional, cell-based.

Turning to `Fc1ccc(C2ON=C(c3ccc(Cl)cc3)N2c2ccccc2)cc1` (centres undefined), the 50% inhibitory concentration (IC50) (usually the concentration that inhibits the measured activity by half) worked out at 6.5 µM in assay [1] and 21.7 µM in assay [4]. Also, the Activity in assay [2] and in assay [3] was over 50% each time.
For `Clc1ccc(C2=NOC(c3ccccc3)N2c2ccccc2)cc1` (centres undefined), the half-inhibitory concentration (IC50) in assay [1] came out at 23.7 µM; in assay [4] it was 97 µM. Moreover, the Activity in assay [2] and in assay [3] was over 50% each time.
Regarding `Clc1ccc(C2=NOC(c3ccc(Cl)cc3)N2c2ccccc2)cc1` (centres undefined), the concentration for half-maximal inhibition (IC50) came to 10.1 µM in assay [1] and 22.2 µM in assay [4]. The Activity in assay [2] and in assay [3] was over 50% each time.
Turning to `COc1cccc2c1C(=O)c1c(O)c3c(c(O)c1C2=O)C[C@@](O)(C(=O)CO)C[C@@H]3O[C@H]1C[C@H](N)[C@H](O)[C@H](C)O1` [DOXORUBICIN], the half-inhibitory concentration (IC50) is over 100 µM in assay [1] and 4.49 µM in assay [4].
Turning to `Clc1ccc(C2=NOC(c3ccc(Cl)cc3)N2c2ccc(Cl)cc2)cc1` (centres undefined), the figures for the IC50 in assay [1] and in assay [4] were 22.6 µM and 51.2 µM, respectively. Besides, the Activity in assay [2] and in assay [3] was over 50% in each case.
For `CC(=O)O[C@H]1C(=O)[C@@]2(C)[C@H]([C@H](OC(=O)c3ccccc3)[C@]3(O)C[C@H](OC(=O)[C@H](O)[C@@H](NC(=O)c4ccccc4)c4ccccc4)C(C)=C1C3(C)C)[C@]1(OC(C)=O)CO[C@@H]1C[C@@H]2O` [PACLITAXEL], in assay [4], the half-inhibitory concentration (IC50) is over 100 µM.

For the origin of these results see ChEMBL document CHEMBL3046060, “Synthesis, molecular docking study, and anticancer activity of triaryl-1,2,4-oxadiazole” (Med Chem Res, 2013).
